In patent US20150105252A1, “SUBSTITUTED PYRAZOLES AS HERBICIDES” (E I DU PONT DE NEMOURS AND COMPANY, priority 2013, published 2015):

How the values were obtained:
morningglory [1] = test: Test A preemergence; assay type: in vivo, Ipomoea spp.; details: for Morningglory plant response rating (0 to 100 scale): visual injury approx. 10 days after treatment
In short: (§1)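 After sowing in a sand–loam mix, pots received compound preemergence by directed soil spray, or postemergence once plants reached the one- to two-leaf stage (2–10 cm). Formulation contained surfactant in a non-phytotoxic solvent. Injury was scored visually after ~10 greenhouse days, 0–100 scale.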

wheat [2] = test: Test A postemergence; assay type: in vivo, Triticum aestivum
In short: as §1

crabgrass, large [3] = test: Test A preemergence; assay type: in vivo, Digitaria sanguinalis; details: for Crabgrass, Large plant response rating (0 to 100 scale): visual injury approx. 10 days after treatment
In short: as §1

pigweed [4] = test: Test A preemergence; assay type: in vivo, Amaranthus retroflexus; details: for Pigweed plant response rating (0 to 100 scale): visual injury approx. 10 days after treatment
In short: as §1

morningglory [5] = test: Test A postemergence; assay type: in vivo, Ipomoea spp.
In short: as §1

corn [6] = test: Test A preemergence; assay type: in vivo, Zea mays; details: for Corn plant response rating (0 to 100 scale): visual injury approx. 10 days after treatment
In short: as §1

wheat [7] = test: Test A preemergence; assay type: in vivo, Triticum aestivum; details: preemergence; for Wheat plant response rating (0 to 100 scale): visual injury approx. 10 days after treatment
In short: as §1

foxtail, giant [8] = test: Test A postemergence; assay type: in vivo, Setaria faberii
In short: as §1

pigweed [9] = test: Test A postemergence; assay type: in vivo, Amaranthus retroflexus
In short: as §1

velvetleaf [10] = test: Test A preemergence; assay type: in vivo, Abutilon theophrasti; details: for Velvetleaf plant response rating (0 to 100 scale): visual injury approx. 10 days after treatment
In short: as §1

barnyardgrass [11] = test: Test B flood; assay type: in vivo, Echinochloa crus-galli; details: 250 g ai/ha, visual rating on 0 to 100 scale (0 no effect, 100 complete control), 13 to 15 days
In short: (§2)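 Plants were grown to the 2-leaf stage and pots flooded to 3 cm above soil. Compounds were applied directly into the paddy water, with depth kept for the test. After 13–15 days in greenhouse, response was rated visually against controls on a 0 (no effect) to 100 (complete control) scale.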

sedge, umbrella = test: Test B flood; assay type: in vivo, Cyperus difformis; details: 250 g ai/ha, visual rating on 0 to 100 scale (0 no effect, 100 complete control), 13 to 15 days
In short: as §2

barnyardgrass [12] = test: Test A preemergence; assay type: in vivo, Echinochloa crus-galli
In short: as §1

ducksalad = test: Test B flood; assay type: in vivo, Heteranthera limosa; details: 250 g ai/ha, visual rating on 0 to 100 scale (0 no effect, 100 complete control), 13 to 15 days
In short: as §2

velvetleaf [13] = test: Test A postemergence; assay type: in vivo, Abutilon theophrasti
In short: as §1

foxtail, giant [14] = test: Test A preemergence; assay type: in vivo, Setaria faberii; details: for Foxtail, Giant plant response rating (0 to 100 scale): visual injury approx. 10 days after treatment
In short: as §1

crabgrass, large [15] = test: Test A postemergence; assay type: in vivo, Digitaria sanguinalis
In short: as §1

corn [16] = test: Test A postemergence; assay type: in vivo, Zea mays
In short: as §1

rice = test: Test B flood; assay type: in vivo, Oryza sativa; details: 250 g ai/ha, visual rating on 0 to 100 scale (0 no effect, 100 complete control), 13 to 15 days
In short: as §2

barnyardgrass [17] = test: Test A postemergence; assay type: in vivo, Echinochloa crus-galli
In short: as §1

[18] = Preemergence, 500 g ai/ha, 0 to 100 scale, 0 no effect, 100 complete control
[19] = preemergence, 125 g ai/ha, visual injury, 0 to 100 scale, approx. 10 days
[20] = Postemergence, 500 g ai/ha, visual rating after approx. 10 days, 0 to 100 scale (0 no effect, 100 complete control)
[21] = postemergence, 125 g ai/ha, about 10 days, visual rating on 0 to 100 scale (0 no effect, 100 complete control)
[22] = 125 g ai/ha, visual injury, 0 to 100 scale, approx. 10 days
[23] = 500 g ai/ha, visual injury after approx. 10 days, 0 to 100 scale (0 no effect, 100 complete control)
[24] = Postemergence, 125 g ai/ha, 0 to 100 scale, 0 no effect, 100 complete control
[25] = preemergence, 500 g ai/ha, visual injury after approx. 10 days, 0 to 100 scale (0 no effect, 100 complete control)
[26] = Postemergence, 500 g ai/ha, 0 to 100 scale (0 no effect, 100 complete control)

Cc1cc(C(=O)NCC(F)(F)F)nn1Oc1ccnc(C(F)(F)F)c1 [Compound 79]
Morningglory plant response rating (morningglory [1]; [18]): 50 | Morningglory plant response rating (morningglory [1]; [19]): 0 | Wheat plant response rating (wheat [2]; [20]): 20 | Wheat plant response rating (wheat [2]; [21]): 0 | Crabgrass, Large plant response rating (crabgrass, large [3]; [18]): 90 | Crabgrass, Large plant response rating (crabgrass, large [3]; [19]): 60 | Pigweed plant response rating (pigweed [4]; [18]): 100 | Pigweed plant response rating (pigweed [4]; [19]): 30 | Morningglory plant response rating (morningglory [5]; [20]): 70 | Morningglory plant response rating (morningglory [5]; [21]): 30 | Corn plant response rating (corn [6]; [18]): 0 | Corn plant response rating (corn [6]; [19]): 0 | Wheat plant response rating (wheat [7]; [22]): 0 | Wheat plant response rating (wheat [7]; [23]): 20 | Foxtail, Giant plant response rating (foxtail, giant [8]; [20]): 30 | Foxtail, Giant plant response rating (foxtail, giant [8]; [21]): 10 | Pigweed plant response rating (pigweed [9]; [20]): 60 | Pigweed plant response rating (pigweed [9]; [21]): 40 | Velvetleaf plant response rating (velvetleaf [10]; [18]): 60 | Velvetleaf plant response rating (velvetleaf [10]; [19]): 0 | Plant response rating, Barnyardgrass (barnyardgrass [11]): 0 | Plant response rating, Sedge, Umbrella (sedge, umbrella): 0 | Barnyardgrass plant response rating (barnyardgrass [12]; [18]): 70 | Barnyardgrass plant response rating (barnyardgrass [12]; [19]): 10 | Plant response rating, Ducksalad (ducksalad): 0 | Velvetleaf plant response rating (velvetleaf [13]; [20]): 50 | Velvetleaf plant response rating (velvetleaf [13]; [21]): 40 | Foxtail, Giant plant response rating (foxtail, giant [14]; [18]): 90 | Foxtail, Giant plant response rating (foxtail, giant [14]; [19]): 10 | Crabgrass, Large plant response rating (crabgrass, large [15]; [20]): 60 | Crabgrass, Large plant response rating (crabgrass, large [15]; [21]): 20 | Corn plant response rating (corn [16]; [20]): 10 | Corn plant response rating (corn [16]; [21]): 10 | Plant response rating, Rice (rice): 0 | Barnyardgrass plant response rating (barnyardgrass [17]; [24]): 0 | Barnyardgrass plant response rating (barnyardgrass [17]; [20]): 30

CCc1cc(C(=O)NC2CC2)nn1Cc1nnc(C(F)(F)F)o1 [Compound 172]
Morningglory plant response rating (0 to 100 scale) (morningglory [1]; preemergence, 125 g ai/ha): 30 | Morningglory plant response rating (morningglory [1]; [25]): 40 | Wheat plant response rating (wheat [2]; [26]): 0 | Wheat plant response rating (wheat [2]; [21]): 0 | Crabgrass, Large plant response rating (0 to 100 scale) (crabgrass, large [3]; preemergence, 125 g ai/ha): 50 | Crabgrass, Large plant response rating (crabgrass, large [3]; [25]): 90 | Pigweed plant response rating (0 to 100 scale) (pigweed [4]; preemergence, 125 g ai/ha): 80 | Pigweed plant response rating (pigweed [4]; [25]): 100 | Morningglory plant response rating (morningglory [5]; [26]): 70 | Morningglory plant response rating (morningglory [5]; [21]): 30 | Corn plant response rating (0 to 100 scale) (corn [6]; preemergence, 125 g ai/ha): 0 | Corn plant response rating (corn [6]; [25]): 10 | Wheat plant response rating (0 to 100 scale) (wheat [7]; 125 g ai/ha): 0 | Wheat plant response rating (wheat [7]; [23]): 0 | Foxtail, Giant plant response rating (foxtail, giant [8]; [26]): 10 | Foxtail, Giant plant response rating (foxtail, giant [8]; [21]): 0 | Pigweed plant response rating (pigweed [9]; [26]): 80 | Pigweed plant response rating (pigweed [9]; [21]): 30 | Velvetleaf plant response rating (0 to 100 scale) (velvetleaf [10]; preemergence, 125 g ai/ha): 10 | Velvetleaf plant response rating (velvetleaf [10]; [25]): 20 | Plant response rating, Barnyardgrass (barnyardgrass [11]): 0 | Plant response rating, Sedge, Umbrella (sedge, umbrella): 0 | Barnyardgrass plant response rating (barnyardgrass [12]; [19]): 0 | Barnyardgrass plant response rating (barnyardgrass [12]; [25]): 50 | Plant response rating, Ducksalad (ducksalad): 0 | Velvetleaf plant response rating (velvetleaf [13]; [26]): 20 | Velvetleaf plant response rating (velvetleaf [13]; [21]): 10 | Foxtail, Giant plant response rating (0 to 100 scale) (foxtail, giant [14]; preemergence, 125 g ai/ha): 20 | Foxtail, Giant plant response rating (foxtail, giant [14]; [25]): 50 | Crabgrass, Large plant response rating (crabgrass, large [15]; [26]): 20 | Crabgrass, Large plant response rating (crabgrass, large [15]; [21]): 10 | Corn plant response rating (corn [16]; [26]): 10 | Corn plant response rating (corn [16]; [21]): 0 | Plant response rating, Rice (rice): 0 | Barnyardgrass plant response rating (barnyardgrass [17]; [26]): 10 | Barnyardgrass plant response rating (barnyardgrass [17]; [21]): 0

CCc1cc(C(=O)NC2CC2)nn1Cc1cccc(C(F)(F)F)n1 [Compound 91]
Morningglory plant response rating (morningglory [1]; [19]): 0 | Morningglory plant response rating (morningglory [1]; [25]): 0 | Wheat plant response rating (wheat [2]; [20]): 0 | Wheat plant response rating (wheat [2]; [21]): 0 | Crabgrass, Large plant response rating (crabgrass, large [3]; [19]): 0 | Crabgrass, Large plant response rating (crabgrass, large [3]; [25]): 20 | Pigweed plant response rating (pigweed [4]; [19]): 0 | Pigweed plant response rating (pigweed [4]; [25]): 40 | Morningglory plant response rating (morningglory [5]; [20]): 20 | Morningglory plant response rating (morningglory [5]; [21]): 10 | Corn plant response rating (corn [6]; [19]): 0 | Corn plant response rating (corn [6]; [25]): 0 | Wheat plant response rating (wheat [7]; [22]): 0 | Wheat plant response rating (wheat [7]; [23]): 0 | Foxtail, Giant plant response rating (foxtail, giant [8]; [20]): 10 | Foxtail, Giant plant response rating (foxtail, giant [8]; [21]): 0 | Pigweed plant response rating (pigweed [9]; [20]): 40 | Pigweed plant response rating (pigweed [9]; [21]): 20 | Velvetleaf plant response rating (velvetleaf [10]; [19]): 0 | Velvetleaf plant response rating (velvetleaf [10]; [25]): 0 | Plant response rating, Barnyardgrass (barnyardgrass [11]): 0 | Plant response rating, Sedge, Umbrella (sedge, umbrella): 0 | Barnyardgrass plant response rating (barnyardgrass [12]; [19]): 0 | Barnyardgrass plant response rating (barnyardgrass [12]; [25]): 0 | Plant response rating, Ducksalad (ducksalad): 0 | Velvetleaf plant response rating (velvetleaf [13]; [20]): 10 | Velvetleaf plant response rating (velvetleaf [13]; [21]): 10 | Foxtail, Giant plant response rating (foxtail, giant [14]; [19]): 0 | Foxtail, Giant plant response rating (foxtail, giant [14]; [25]): 0 | Crabgrass, Large plant response rating (crabgrass, large [15]; [20]): 10 | Crabgrass, Large plant response rating (crabgrass, large [15]; [21]): 0 | Corn plant response rating (corn [16]; [20]): 10 | Corn plant response rating (corn [16]; [21]): 0 | Plant response rating, Rice (rice): 0 | Barnyardgrass plant response rating (barnyardgrass [17]; [24]): 0 | Barnyardgrass plant response rating (barnyardgrass [17]; [20]): 10

CCc1cc(C(=O)NCC(F)(F)F)nn1Cc1cc(C(F)(F)C(F)(F)F)nn1C [Compound 227]
Morningglory plant response rating (0 to 100 scale) (morningglory [1]; preemergence, 125 g ai/ha): 10 | Wheat plant response rating (wheat [2]; [24]): 20 | Wheat plant response rating (wheat [2]; [26]): 70 | Crabgrass, Large plant response rating (0 to 100 scale) (crabgrass, large [3]; preemergence, 125 g ai/ha): 100 | Crabgrass, Large plant response rating (crabgrass, large [3]; [25]): 100 | Pigweed plant response rating (0 to 100 scale) (pigweed [4]; preemergence, 125 g ai/ha): 90 | Morningglory plant response rating (morningglory [5]; [24]): 70 | Morningglory plant response rating (morningglory [5]; [26]): 100 | Corn plant response rating (0 to 100 scale) (corn [6]; preemergence, 125 g ai/ha): 0 | Corn plant response rating (corn [6]; [25]): 50 | Wheat plant response rating (0 to 100 scale) (wheat [7]; 125 g ai/ha): 10 | Foxtail, Giant plant response rating (foxtail, giant [8]; [24]): 70 | Foxtail, Giant plant response rating (foxtail, giant [8]; [26]): 90 | Pigweed plant response rating (pigweed [9]; [24]): 100 | Pigweed plant response rating (pigweed [9]; [26]): 100 | Velvetleaf plant response rating (0 to 100 scale) (velvetleaf [10]; preemergence, 125 g ai/ha): 30 | Plant response rating, Barnyardgrass (barnyardgrass [11]): 80 | Plant response rating, Sedge, Umbrella (sedge, umbrella): 95 | Barnyardgrass plant response rating (0 to 100 scale, 0 is no effect, 100 is complete control) (barnyardgrass [12]; preemergence, 125 g ai/ha, visual injury approx. 10 days after treatment): 40 | Barnyardgrass plant response rating (barnyardgrass [12]; [25]): 100 | Plant response rating, Ducksalad (ducksalad): 100 | Velvetleaf plant response rating (velvetleaf [13]; [24]): 40 | Velvetleaf plant response rating (velvetleaf [13]; [26]): 100 | Foxtail, Giant plant response rating (0 to 100 scale) (foxtail, giant [14]; preemergence, 125 g ai/ha): 70 | Foxtail, Giant plant response rating (foxtail, giant [14]; [25]): 100 | Crabgrass, Large plant response rating (crabgrass, large [15]; [24]): 60 | Crabgrass, Large plant response rating (crabgrass, large [15]; [26]): 90 | Corn plant response rating (corn [16]; [24]): 30 | Corn plant response rating (corn [16]; [26]): 70 | Plant response rating, Rice (rice): 0 | Barnyardgrass plant response rating (barnyardgrass [17]; [24]): 40 | Barnyardgrass plant response rating (barnyardgrass [17]; [26]): 80
